In ChEMBL document CHEMBL5036374, “2-Oxooxazolidine-5-carboxamides as Nav1.8 Inhibitors for Treating Pain Disorders, Cough Disorders, and Acute and Chronic Itch Disorders” (ACS Med Chem Lett, 2022):

Assay: Inhibition of human Nav1.8 expressed in HEK293 cells assessed as sodium current flow at holding potential of -90mV by Whole cell-automated patch clamp assay
Type: cell-based

IC50 [nM] | Structure (SMILES)
0.6 | Cc1cc(C(NC(=O)[C@@H]2CNC(=O)O2)c2ccc(Cl)cc2)ccc1Cl (stereo partly specified)
0.6 | O=C1NC[C@@H](C(=O)NC(c2ccc(Cl)cc2)c2ccc(Cl)c(C(F)(F)F)n2)O1 (stereo partly specified)
0.7 | O=C1NC[C@@H](C(=O)NC(c2ccc(F)c(Cl)c2)c2ccc(F)c(Cl)c2)O1
1.2 | O=C1NC[C@@H](C(=O)NC(c2ccc(OC(F)(F)F)c(Cl)c2)c2cnn(C(F)(F)F)c2)O1 (stereo partly specified)
0.9 | O=C1NC[C@@H](C(=O)NC(c2ccc(Cl)cc2)c2ccc(F)c(Cl)c2)O1 (stereo partly specified)
0.4 | O=C1NC[C@@H](C(=O)NC(c2ccc(Cl)cc2)c2ccc(Cl)c(C(F)(F)F)c2)O1 (stereo partly specified)
